US20070293486A1, “Alpha-Keto Carbonyl Calpain Inhibitors” (SANTHERA PHARMACEUTICALS (SCHWEIZ) AG, priority 2004, published 2007)

Tests used:
[1] = tested on: Primary fibroblasts from donors with Friedreich Ataxia (FRDA); assay: BSO Assay (cell viability under BSO-induced oxidative stress); assay type: cell-based; settings: Homo sapiens, Fibroblast
Protocol: Primary fibroblasts were derived from donors with molecular diagnosis for Friedreich Ataxia (FRDA) and control donors with no mitochondrial disease. Cell lines were obtained from Coriell Cell Repositories (Camden, N.J.; catalog numbers GM04078, GM08402 and GM08399 respectively). All cell types were diagnosed on the molecular level for intronic […] triplet repeat length of at least 400-450 repeats using a PCR-based method. […] Cell viability was measured after the first signs of toxicity appeared in the BSO-treated controls (typically after 16 to 48 h). […] Fluorescence intensity was measured with a Gemini Spectramax XS spectrofluorimeter (Molecular Devices, Sunnyvale, Calif.) using excitation and emission wavelengths of 485 nm and 525 nm respectively.

human μ-calpain = target: T1, human μ-calpain (Homo sapiens, UniProt P07384); assay: Enzymatic Calpain Inhibition Assay; assay type: biochemical; settings: enzymatic calpain I inhibition; read-out: Calp I IC50
T1 construct: purchased Calbiochem
T1 sequence (P07384 1-714): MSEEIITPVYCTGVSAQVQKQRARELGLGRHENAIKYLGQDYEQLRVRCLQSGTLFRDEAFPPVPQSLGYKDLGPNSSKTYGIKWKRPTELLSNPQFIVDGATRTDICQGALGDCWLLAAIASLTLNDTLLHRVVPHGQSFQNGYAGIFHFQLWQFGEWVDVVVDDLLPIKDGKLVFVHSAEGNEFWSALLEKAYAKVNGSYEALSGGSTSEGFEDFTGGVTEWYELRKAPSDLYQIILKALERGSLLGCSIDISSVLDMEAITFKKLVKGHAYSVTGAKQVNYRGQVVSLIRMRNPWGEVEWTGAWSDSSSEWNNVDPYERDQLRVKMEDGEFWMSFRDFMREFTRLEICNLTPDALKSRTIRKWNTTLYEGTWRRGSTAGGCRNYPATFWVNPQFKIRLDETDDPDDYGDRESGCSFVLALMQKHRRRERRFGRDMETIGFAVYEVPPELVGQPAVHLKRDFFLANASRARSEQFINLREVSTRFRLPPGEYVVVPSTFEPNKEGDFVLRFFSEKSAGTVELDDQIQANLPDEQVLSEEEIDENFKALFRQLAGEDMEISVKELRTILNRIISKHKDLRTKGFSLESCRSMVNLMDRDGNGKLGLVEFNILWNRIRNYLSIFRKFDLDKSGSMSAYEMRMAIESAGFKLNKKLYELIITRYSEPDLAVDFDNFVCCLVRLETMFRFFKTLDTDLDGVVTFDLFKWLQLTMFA
T1 sequence (P04632 1-268 partner): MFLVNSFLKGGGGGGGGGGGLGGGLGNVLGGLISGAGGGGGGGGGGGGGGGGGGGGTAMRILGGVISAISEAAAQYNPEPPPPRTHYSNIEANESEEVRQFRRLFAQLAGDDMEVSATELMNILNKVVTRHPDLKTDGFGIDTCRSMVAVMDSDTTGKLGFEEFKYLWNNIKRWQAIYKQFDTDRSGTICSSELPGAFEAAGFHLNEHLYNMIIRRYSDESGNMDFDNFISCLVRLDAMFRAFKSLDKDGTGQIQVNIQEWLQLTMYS
Protocol: The Ki value was also determined in some cases. These criteria were used to measure the inhibitory effect of the compounds (I) on calpain I, calpain II and cathepsin B.
The inhibitory properties of calpain inhibitors are tested in 100 μl of a buffer containing 100 mM imidazole pH 7.5, 5 mM L-Cystein-HCl, 5 mM CaCl2, 250 μM of the calpain fluorogenic substrate Suc-Leu-Tyr-AMC (Sigma) (Sasaki et al., J. Biol. Chem., 1984, 259, 12489-12949) dissolved in 2.5 μl DMSO and 0.5 μg of human μ-calpain (Calbiochem). The inhibitors dissolved in 1 μl DMSO are added to the reaction buffer. The fluorescence of the cleavage product 7-amino-4-methylcoumarin (AMC) is followed in a SPECTRAmax GEMINI XS (Molecular Device) fluorimeter at λex=360 nm and λem=440 nm at 30° C. during 30 min at intervals of 30 sec in 96-well plates (Greiner). The initial reaction velocity at different inhibitor concentrations is plotted against the inhibitor concentration and the IC50 values determined graphically.

| IC50 (human μ-calpain) [nM] | melting point [°C] | Compound | EC50 [1] [nM] |
| --- | --- | --- | --- |
| 38 |  | CCNC(=O)C(=O)[C@H](Cc1ccc(Cl)cc1)NC(=O)[C@@H](NC(=O)[C@H](Cc1ccccc1)NC(=O)CCCCC1CCS[S+]1[O-])C(C)C (stereo partly shown) [Example 2] | 800 |
| 30 | 188 to 190 | CCNC(=O)C(=O)C(Cc1ccc(OC)cc1)NC(=O)C(CC(C)C)NC(=O)C(Cc1cccc2ccccc12)NC(=O)CCCCC1CCSS1 (stereo not shown) [Example 637] |  |
